Results taken from patent publication US20240335462A1, “SULFUR/PHOSPHORUS-CONTAINING ARYL COMPOUND AND APPLICATION THEREOF” (MEDSHINE DISCOVERY INC., priority 2021, published 2024).
Where two headings read alike, the source gives them in different places.

Key:
[1] = tested on: JAK2/2 signaling pathway (TPO/pSTAT5); assay: TPO-induced STAT phosphorylation in human platelet-rich plasma; assay type: cell-based
Description: The purpose of this experiment was to detect the inhibitory effect of the compound on the JAK-STAT signaling pathway activated by cytokines in human whole blood or platelet-rich plasma. Fresh human whole blood/platelets were placed in a 96-well plate. The test compound was added and incubated for 1 hour, followed by stimulation with various cytokines. The corresponding STAT phosphorylation levels in different cell populations were analyzed using flow cytometer by means of surface antibody staining and intracellular phosphorylated antibody staining. The experiments using the cytokines IFN-α, […] as stimulants were conducted in human whole blood, whereas the experiment using the cytokine TPO as a stimulant was conducted in platelet-rich plasma.
• a) Fresh blood from volunteers was collected using EDTA anticoagulant tubes and centrifuged at 200 g for 20 minutes to prepare platelet-rich plasma (PRP). • b) 90 μL per well of PRP was rapidly seeded into a 96-well plate and incubated in a cell culture incubator for 15 minutes. […] The plate was then incubated in the incubator for 15 minutes. • d) After incubation, the plate was centrifuged at 1000×g for 10 minutes, then the supernatant was discarded, and the cells were washed twice with 200 μL of PBS. • e) PE-anti-human CD61 antibody was added to each well, followed by incubation at room temperature for 40 minutes. • f) After incubation, the plate was centrifuged at 1000×g for 10 minutes, then the supernatant was discarded, and the cells were washed twice with 200 μL of PBS. • g) The cells were resuspended in 200 μL of pre-cooled Perm Buffer III and permeabilized on ice for 60 minutes. • h) The plate was centrifuged at 1000×g for 10 minutes, then the supernatant was discarded, and the cells were washed twice with pre-cooled PBS. • i) Intracellular anti-pSTAT5 phosphorylated antibody was added thereto, followed by incubation at room temperature for 60 minutes. • j) The cells were washed twice with PBS and resuspended in 200 μL of PBS, and then detected using the CytoFlex S flow cytometer. […]

[2] = Pharmacokinetic testing in mice; assay type: in vivo, male CD-1 mice; conditions: mouse; for C0: read-out: Starting concentration C0; for Cmax: read-out: Peak concentration Cmax; for Vd: read-out: Apparent volume of distribution Vd; for AUC(0-t): read-out: Area under the curve AUC0-last; for half-life: read-out: Half-life T1/2 (converted); for bioavailability: read-out: Bioavailability F %; for Tmax: read-out: Time to peak concentration Tmax
Description: The objective was to study the pharmacokinetic behavior of the compound of the present disclosure in mice and evaluate the pharmacokinetic characteristics, using male CD-1 mice aged 7 to 9 weeks as test animals. The drug concentrations in plasma at different time points after a single intravenous injection (IV) and oral administration (PO) of the compound were determined using LC/MS/MS.
The pharmacokinetic characteristics of the compound in rodents following intravenous injection and oral administration were tested using a standard protocol. Test animals were fasted for 10 to 14 hours before administration and allowed to feed 4 hours post-administration. The compound was prepared into a clear solution with the appropriate solvent for both IV (intravenous injection) and PO (oral gavage) administration. The solvent was 10% DMSO+10% solutol+80% (10% HP-β-CD aqueous solution). Whole blood samples were collected within 24 hours, centrifuged at 6000 g for 3 minutes, and the supernatant was separated to obtain plasma samples. Protein precipitation was performed by adding four times the volume of acetonitrile solution containing internal standard to the plasma samples. After centrifugation, the supernatant was added with an equal volume of water and then centrifuged before being subjected to LC-MS/MS analysis for quantifying plasma drug concentration. Pharmacokinetic parameters such as peak concentration, time to peak concentration, clearance, half-life, area under the drug-time curve, and bioavailability were calculated.

[3] = male, CD-1, plasma, PO 10 mg/kg

Row | SMILES | IC50 [1] | Apparent clearance Cl ([2]; IV 3 mg/kg) | Apparent volume of distribution Vd ([2]; IV 3 mg/kg) | Area under the curve AUC0-last ([2]; IV 3 mg/kg) | Half-life T1/2 ([2]; IV 3 mg/kg) | C0 ([2]; IV 3 mg/kg) | Area under the curve AUC0-last ([2]; PO 10 mg/kg) | Bioavailability F % ([2]; PO 10 mg/kg) | Time to peak concentration Tmax ([2]; PO 10 mg/kg) | Cmax ([2]; PO 10 mg/kg) | Vd ([2]; male, CD-1, plasma, IV 3 mg/kg) | AUC(0-t) ([2]; male, CD-1, plasma, IV 3 mg/kg) | half-life ([2]; male, CD-1, plasma, IV 3 mg/kg) | C0 ([2]; male, CD-1, plasma, IV 3 mg/kg) | AUC(0-t) [2, 3] | bioavailability [2, 3] | Cmax [2, 3] | Tmax [2, 3]
1 | CNC(=O)c1nnc(NC(=O)C2CC2)cc1Nc1cccc(-c2ncc(S(=N)(=O)C(C)C)cn2)c1OC (single isomer, unassigned) [WX-011A] | > 100 µM | 14.1 mL/min/kg | 0.8 L/kg | 6.908 µM·h | 252 min | 9.92 µM | 26.715 µM·h | 51% | 18 min | 16.8 µM |  |  |  |  |  |  |  | 
2 | CNC(=O)c1cnc(NC(=O)C2CC2)cc1Nc1cccc(-c2ccc(S(=O)(=O)C(C)C)cn2)c1OC.Cl [Hydrochloride of WX-020] |  | 7.0 mL/min/kg | 1.1 L/kg | 14.13 µM·h | 138 min | 8.04 µM | 56.784 µM·h | 121% | 30 min | 15.5 µM |  |  |  |  |  |  |  | 
3 | CNC(=O)c1cnc(NC(=O)C2CC2)cc1Nc1cccc(-c2ncc(S(=O)(=O)C(C)C)cn2)c1OC [WX-019] | > 100 µM | 4.7 mL/min/kg |  |  |  |  |  |  |  |  | 0.4 L/kg | 21 µM·h | 66 min | 16.3 µM | 61.2 µM·h | 87% | 17.3 µM | 48 min
4 | CNC(=O)c1cnc(NC(=O)C2CC2)cc1Nc1cccc(-c2ccc(S(=O)(=O)C(C)C)cn2)c1OC [WX-020] | > 100 µM |  |  |  |  |  |  |  |  |  |  |  |  |  |  |  |  | 
5 | CNC(=O)c1nnc(NC(=O)C2CC2)cc1Nc1cccc(-c2ccc(P(=O)(C3CC3)C3CC3)cn2)c1OC [WX-021] |  | 8.5 mL/min/kg |  |  |  |  |  |  |  |  | 0.9 L/kg | 11.9 µM·h | 174 min | 9.89 µM | 20.7 µM·h | 52% | 11.3 µM | 18 min
